# Source: PubChem BioAssay (NCI)
#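 Method: 48-hour compound exposure of cells in 96-well plates, five concentrations, linear interpolation of endpoints. At the GI50, growth is halved. TGI is the concentration that stops growth completely.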
# Test system: A498 renal
# Experiment: growth of human tumour cells (NCI), 48 h
SMILES,GI50 [µM],TGI [µM]
O=C(CC1(O)C(=O)N(Cc2ccccc2)c2ccc(F)cc21)c1ccc(C(=O)NCC2CCC3(CC2)OOC2(CCCCC2)OO3)cc1 (stereo not given),1.69,3.88
COc1cc2c3c(n(C)c(=O)c2cc1OC)-c1cc2c(cc1/C3=C\CN)OCO2,3.07,86.8
COc1ccc(/C=C2/N=C(c3ccccc3)N(c3c(C)n(C)n(-c4ccccc4)c3=O)C2=O)cc1OC,> 100,> 100
CCCc1nc(NC#N)nc(C(=O)Nc2ccccc2)c1CC,,> 100
O=C(CCc1n[nH]c(=S)o1)Nc1ccccc1C(F)(F)F,,> 100
CCn1c2ccccc2c2cc(NC(=O)Nc3ccc([N+](=O)[O-])cc3C)ccc21,11.5,64.1
Cc1ccc(NC(=O)CCc2cc(C(C)(C)C)nc(=S)[nH]2)cc1C,,> 100
Cc1[nH]c2ccccc2c1C(=O)/C=C/c1ccccc1O,,> 100
O=C(Nc1nc(=S)c2c(ncn2CCOC(=O)c2ccccc2)[nH]1)c1ccccc1,,> 100
COc1ccc(CC2NCCc3c2[nH]c2ccccc32)cc1 (stereo not given),,> 100
O=C(CSc1nc2ccccc2nc1-c1ccccc1)Nc1ccc(F)cc1,41.7,> 100
COc1ccc2c(c1)C(=O)c1c-2c(N2CCN(C(=O)CNCCNCCO)CC2)nc2ccccc12,8.32,20.2
Cc1ccc(/C=C/C(=O)c2sc(-c3nc(C)c(C(=O)/C=C/c4ccc(C)cc4)s3)nc2C)cc1,,> 100
Cn1cc(-c2csc(-c3c[nH]c4ccc(F)cc34)n2)c2cnccc21,1.87,3.31
O=C1Nc2ccccc2/C1=N\[O-].O=C1Nc2ccccc2/C1=N\[O-].[Cu+2],> 100,> 100
O=c1ccn([C@H]2CSC[C@@H](CO)C2)c(=O)[nH]1,,> 100

# Test system: IGROV1 ovarian
# Experiment: growth of human tumour cells (NCI), 48 h
SMILES,GI50 [µM],TGI [µM]
CN(C)CC[PH+](c1ccccc1)c1ccccc1.CN(C)CC[PH+](c1ccccc1)c1ccccc1.[Cl-].[Pd+2],> 100,> 100
O=C(c1ccccc1)c1cc2ccccc2o1,25.4,> 100
O=C(Nc1ccncc1)C(=O)c1cn(S(=O)(=O)c2ccc(F)cc2)c2ccccc12,4.23,> 100
C=C(C)[C@@H]1CC[C@]2(C)[C@H](CC=C3[C@@H]4CC(C)(C)CC[C@]4(C(N)=O)CC[C@]32C)[C@@]1(C)CCC#N,3.92,> 100
O=C(N[C@@H](c1ccc(Cl)c(Cl)c1)C1CNC1)c1ccc2cnccc2c1,0.0324,4.69
CO/N=C(\COc1ccc2c(c1)oc(=O)c1cc(OC)ccc12)c1ccc(OC)cc1,> 100,> 100
COc1ccc(NC(=O)/C(Cc2cc(=O)oc3cc(O)ccc23)=N\NC(C)(C)C)c(OC)c1,,> 100
O=C1/C(=C/c2ccc3c(c2)OCO3)SC2C=Nc3ccccc3N12 (stereo not given),,> 100
CCOc1ccc(NC(=O)C(=O)CC(=O)c2c(C)n([O-])c3ccccc3[n+]2=O)cc1,,> 100
Cc1cc(Cl)ccc1NC(=O)C(=O)Cc1nc2ccccc2o1,,> 100
OCC1OC(c2nc(C3=NCCCN3)cs2)C(O)C1O (stereo not given),,> 100
CCC(C)COC(=O)c1ccc(N=Cc2ccc(C=Nc3ccc(C(=O)OCC(C)CC)cc3)cc2)cc1 (stereo not given),,> 100
COc1cc(F)ccc1-c1ncnc(Nc2cccc(CS(C)(=N)=O)c2)n1 (stereo not given),0.65,> 100
Cc1cc(N(CCC#N)CCC#N)ccc1N=Nc1ccc(C(=O)O)cc1,,> 100
[Cl][Hg][c]1cc[c]([Hg][Cl])o1,1.93,10.1
CN(C)CC1CCCC/C1=N/OC(=O)c1ccc(Cl)cc1 (stereo not given),,> 100
N#CC(C(=O)C(=O)C(C#N)c1ccc(Br)cc1)c1ccc(Br)cc1 (stereo not given),,30
COc1cccc(C2=NC(C(C)C)CO2)c1 (stereo not given),,> 100
CCOC(=O)C(=[N+]=[N-])[Si](C)(C)C,,> 100
O=C(CC1(O)C(=O)N(Cc2ccccc2)c2ccc(F)cc21)c1ccc(C(=O)NCC2CCC3(CC2)OOC2(CCCCC2)OO3)cc1 (stereo not given),0.236,0.62
COc1cc2c3c(n(C)c(=O)c2cc1OC)-c1cc2c(cc1/C3=C\CN)OCO2,1.35,> 100
